Entries after “also recorded” stand apart in the source; their conditions may differ.
Key:
[1] = test system: insulin antibodies; assay: Insulin antibodies (IAA) in serum of immunized NOD mice, competitive radiobinding assay; type: in vivo, mouse; details: NOD mice immunized subcutaneously in IFA
Method: Littermates were divided into 3 groups. […] Complete Freund's adjuvant was avoided because of its known protective effect in NOD mice (Qin et al. [1993] J. Immunol. 150:2072-2080). […] Treatments started at 4 weeks of age and subsequent immunizations were administered at ages 12, 16, and 22 weeks. […] In addition, 2 new treatments were assessed. […] As in the first study, immunizations were given in IFA commencing at 4 weeks of age, but subsequent injections were given at 8 week intervals. In a third NOD mouse experiment, controlled by 18, 0.9% saline+IFA-treated littermates (10 female and 8 male), 18 mice received 250 μg BSA (Sigma) in IFA (10 female and 8 male). A third group of 21 littermates was treated with 100 μg of the 17 amino acid component peptide of BSA called ABBOS in IFA (11 female and 10 male).
(§1) Venous blood samples, obtained from the tail vein or retro-orbital sinus were tested serially for glucose and IAA. Blood glucose was determined using a Chemstrip bG (Boehringer Mannheim) read visually as verified by a reflectance meter. Diabetes was diagnosed when the whole blood glucose level was greater than 240 mg/dl (13.3 mmol/L). A liquid phase competitive radiobinding assay using 1:3 diluted mouse sera was used to determine IAA titer (Vardi et al. [1987] Diabetes 36:1286-1291). Normal murine levels, established from a survey of 48 mice from six different strains that were not susceptible to spontaneous diabetes were considered to be below 180 nU/ml (3 standard deviations above mean).

[2] = test system: NOD mice; assay: Subcutaneous immunization in IFA, development of diabetes in NOD mice; type: in vivo, mouse; details: for Protective effect against diabetes (in words): subcutaneous immunization in IFA; for IDD rate (frequency of diabetes): subcutaneous immunization in IFA from 4 weeks of age, FIG. 1
Description: NOD/Uf mice (Winter [1990] Diabetes 39:975-982) were bred and maintained in the temperature and light controlled facility of the Department of Pathology at the University of Florida. After weaning at 3-4 weeks of age, littermates were housed in groups of no more than 6 per cage. A soy and […]-based chow (Harlan, Madison, Wis.) and water were available ad libitum. Typical diabetes rates in the NOD/Uf colony at 40 weeks of age are near 90% in females and 30% in males. Littermates were divided into 3 groups. […] Complete Freund's adjuvant was avoided because of its known protective effect in NOD mice (Qin et al. [1993] J. Immunol. 150:2072-2080). […] Treatments started at 4 weeks of age and subsequent immunizations were administered at ages 12, 16, and 22 weeks. […] In addition, 2 new treatments were assessed. […] As in the first study, immunizations were given in IFA commencing at 4 weeks of age, but subsequent injections were given at 8 week intervals. In a third NOD mouse experiment, controlled by 18, 0.9% saline+IFA-treated littermates (10 female and 8 male), 18 mice received 250 μg BSA (Sigma) in IFA (10 female and 8 male). A third group of 21 littermates was treated with 100 μg of the 17 amino acid component peptide of BSA called ABBOS in IFA (11 female and 10 male). This peptide has been proposed as an environmental molecular mimic of an endogenous islet protein. Venous blood samples, obtained from the tail vein or retro-orbital sinus were tested serially for glucose and IAA. Blood glucose was determined using a Chemstrip bG (Boehringer Mannheim) read visually as verified by a reflectance meter. Diabetes was diagnosed when the whole blood glucose level was greater than 240 mg/dl (13.3 mmol/L). A liquid phase competitive radiobinding assay using 1:3 diluted mouse sera was used to determine IAA […] al. [1987] Diabetes 36:1286-1291). Normal murine levels, established from a survey of 48 mice from six different strains that were not susceptible to spontaneous diabetes were considered to be below 180 nU/ml (3 standard deviations above mean). The method of Kaplan and Meier (Kaplan and Meier [1958] J. Am. Stat. Assoc. 53:457-481) was used to construct life tables and the logrank Chi-square statistic was used to compare them (Mantel, N. (1966) Cancer Chemother. Rep. 50:163-170). A Student t-test or one-way ANOVA was used when appropriate to compare means. Fisher's exact test was applied to compare frequencies in the adoptive transfer studies.

[3] = test system: irradiated NOD recipients; assay: Adoptive co-transfer of splenocytes from immunized and acutely diabetic NOD mice to irradiated NOD recipients; type: in vivo, mouse; details: for Transfer of protection by splenocytes of immunized mice (in words): irradiated NOD recipients, adoptive co-transfer
Description: At age 10 weeks, splenocyte pools were obtained from these mice, each pool comprising cells from 3 similarly treated animals. These "modulator" splenocytes were mixed with an equal number of pooled splenocytes that had been harvested from 6 untreated, acutely diabetic NOD mice. Six hours after a 700 Rad dose of γ-irradiation, 10 previously untreated, non-diabetic, 10 week old male NOD mice received an intravenous infusion containing a total of 40×10^6 cells from one of the mixtures, i.e. 3 diluent-, 3 A chain-, and 4 B chain-treated animals.
as §1
(§2) Non-diabetic mice in the subcutaneous immunization protocol that survived to 40 weeks were sacrificed at that age. Their pancreata were removed, fixed in 10% formalin and stained for light microscopic examination with hematoxylin and eosin. The slides were coded and a consensus insulitis score was determined by 3 examiners before the code was broken. The presence of insulitis was scored using a previously described dual scale that assesses both the severity of immune infiltration and the cytoarchitectural disruption. Finally, the pancreata from the modulator cell donors in the adoptive transfer studies were similarly reviewed at 10 weeks of age. Pancreata from 8 of 10 recipients (only 2 of 4 mice receiving B chain modulator cells were sacrificed) were analyzed 20 days after their adoptive transfer.
The method of Kaplan and Meier (Kaplan and Meier [1958] J. Am. Stat. Assoc. 53:457-481) was used to construct life tables and the logrank Chi-square statistic was used to compare them (Mantel, N. (1966) Cancer Chemother. Rep. 50:163-170). A Student t-test or one-way ANOVA was used when appropriate to compare means. Fisher's exact test was applied to compare frequencies in the adoptive transfer studies. P-values are 2-sided.

[4] = test system: NOD mice; assay: Insulitis score / pancreatic histology of immunized NOD mice; type: in vivo, mouse; details: NOD mice immunized subcutaneously in IFA; non-diabetic survivors at 40 weeks
Method: as §2

[5] = test system: NOD mice; details: cited from earlier work
[6] = irradiated male NOD recipients of splenocytes from treated donors plus diabetic donors, diabetic/total

For “A chain: recombinant human A chain insulin, given in IFA”, the “Insulin antibody level / insulin binding activity in serum (in words)” value [1] was “high insulin binding activity in serum”, the “Insulin antibody level / insulin binding activity in serum (in words)” value ([1]; listed as A) was “stimulated high levels of insulin antibodies” and the “Protective effect against diabetes (in words)” value (from here on “Protective effect”) [2] was “had no protective effects”. For the same substance, the “IDD rate (frequency of diabetes)” value [2] was 53%, the “Protective effect” value ([2]; listed as A chain insulin) was “did not however alter the course of IDD” and the “Number of Diabetic Mice, Day 10” value [3, 6] was 0/3. The “Number of Diabetic Mice, Day 20” value [3, 6] was 3/3.

For “insulin: purified porcine NPH insulin (first study) or recombinant human NPH insulin (second study, FIG. 1), given subcutaneously in incomplete Freund's adjuvant [reference compound]”, the “Insulitis / pancreatic histology (in words)” value [4] is given as “incidence and severity of insulitis were little affected, or actually increased; also recorded: not significantly reduced; also recorded: neither insulin nor B chain immunizations diminished insulitis”, the “Protection from hyperglycemia and insulitis (in words)” value ([5]; extended prophylactic course of daily subcutaneous injections, NOD mice (Atkinson et al. 1990)) is given as “protected NOD mice from both hyperglycemia and islet infiltration by mononuclear leukocytes (insulitis)” and the “Response to oral insulin (in words)” value ([5]; oral, NOD mice (Zhang et al. 1991)) is given as “beneficial response”. For the same substance, the “Protective effect” value [2] was “significantly reduced the incidence of diabetes; also recorded: strong protection for diabetes was achieved; also recorded: significantly reduce the incidence of IDD; also recorded: excellent protection against IDD” and the “IDD rate (frequency of diabetes)” value [2] was “under 13%”.

With “B chain: recombinant human B chain insulin, given in IFA” the “Insulitis / pancreatic histology (in words)” value [4] was “neither insulin nor B chain immunizations diminished insulitis”, the “Insulin antibody level / insulin binding activity in serum (in words)” value [1] was “stimulated high levels of insulin antibodies; also recorded: high insulin binding activity in serum” and the “Protective effect” value [2] was “resulted in protection from diabetes; also recorded: protection conferred by subcutaneous insulin immunization was duplicated; also recorded: all of the protection was localized to the B chain”. The “IDD rate (frequency of diabetes)” value [2] was 16%, the “Protective effect” value ([2]; listed as B chain of insulin) was “reproduced the protective effect of insulin; also recorded: excellent protection against IDD” and the “Protective effect” value ([2]; listed as insulin B chain) was “protection equal or superior to that conferred by intact insulin”. The “Time for which diabetes was prevented after co-transfer” value ([3]; co-transfer of splenocytes from treated and acutely diabetic mice, p=0.03) was “at least 75 days”, the “Transfer of protection by splenocytes of immunized mice (in words)” value [3] was “able to confer the protective effect on irradiated NOD recipients” and the “Transfer of protection by splenocytes of immunized mice (in words)” value ([3]; listed as B chain of insulin) was “able to protect irradiated, recipient mice”. The “Number of Diabetic Mice, Day 10” value [3, 6] was 0/4, the “Number of Diabetic Mice, Day 20” value [3, 6] was 0/4 and the “Number of Diabetic Mice, Day 75” value [3, 6] was 0/2.

For “glutamic acid decarboxylase [human GAD65]”, the “Protective effect” value [2] was “onset of diabetes has been delayed”.

In the case of “bovine serum albumin [BSA, reference compound]”, the “Protective effect” value [2] was “had no protective effects”.

Reference: patent publication US5891435A, “Methods and compositions for delaying or preventing the onset of autoimmune disease” (Research Corporation Technologies, Inc., priority 1993, dated 1999)
